According to PubChem BioAssay AID250 (DTP/NCI, 2004):
“And” between values parts separate entries of the source, which are not always exact repeats. Identical values can stand only once. Toxic doses and inconclusive results are not listed.

System: BDF1 mice, L1210 leukemia sc, survival T/C
Experiment: NCI In Vivo Anticancer Drug Screen. Data for tumor model L1210 Leukemia (subcutaneous) in B6D2F1 (BDF1) mice
Conditions: higher = longer survival
Procedure, shortened: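 Mice carrying transplanted tumors received test compounds, and survival or tumor size was measured. Values are the treated-group measurement (T) divided by that of the vehicle-treated control group (C).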

[1] = endpoint: median survival time, dose: 108.0 mg/kg/injection, schedule: Q01DX Z (sc), vehicle: methylcellulose (MC)

## CC(=O)NC(CCC(=O)C=[N+]=N)C(=O)O (configuration not stated)
endpoint: median survival time, dose: 0.07 mg/kg/injection, schedule: Q#A X Z (sc), vehicle: water
  T/C: 100 % of control
endpoint: median survival time, dose: 0.11 mg/kg/injection, schedule: Q#A X Z (sc), vehicle: water
  T/C: 109 % of control
endpoint: median survival time, dose: 0.14 mg/kg/injection, schedule: Q01DX Z (sc), vehicle: water
  T/C: 95 % of control
endpoint: median survival time, dose: 0.19 mg/kg/injection, schedule: Q01DX Z (sc), vehicle: water
  T/C: 110 % of control
endpoint: median survival time, dose: 0.19 mg/kg/injection, schedule: Q#A X Z (sc), vehicle: water
  T/C: 109 % of control
endpoint: median survival time, dose: 0.24 mg/kg/injection, schedule: Q01DX Z (sc), vehicle: water
  T/C: 108 % of control
endpoint: median survival time, dose: 0.31 mg/kg/injection, schedule: Q01DX Z (sc), vehicle: water
  T/C: 109 % of control and 110 % of control
endpoint: median survival time, dose: 0.31 mg/kg/injection, schedule: Q#A X Z (sc), vehicle: water
  T/C: 122 % of control
endpoint: median survival time, dose: 0.4 mg/kg/injection, schedule: Q01DX Z (sc), vehicle: water
  T/C: 116 % of control
endpoint: median survival time, dose: 0.47 mg/kg/injection, schedule: Q01DX Z (sc), vehicle: water
  T/C: 120 % of control
endpoint: median survival time, dose: 0.52 mg/kg/injection, schedule: Q01DX Z (sc), vehicle: water
  T/C: 109 % of control and 113 % of control
endpoint: median survival time, dose: 0.52 mg/kg/injection, schedule: Q02DX Z (sc), vehicle: water
  T/C: 100 % of control
endpoint: median survival time, dose: 0.78 mg/kg/injection, schedule: Q01DX Z (sc), vehicle: water
  T/C: 170 % of control
endpoint: median survival time, dose: 0.86 mg/kg/injection, schedule: Q01DX Z (sc), vehicle: water
  T/C: 155 % of control
endpoint: median survival time, dose: 0.86 mg/kg/injection, schedule: Q02DX Z (sc), vehicle: water
  T/C: 104 % of control
endpoint: median survival time, dose: 0.86 mg/kg/injection, schedule: Q## X Z (sc), vehicle: water
  T/C: 100 % of control
endpoint: median survival time, dose: 1.3 mg/kg/injection, schedule: Q01DX Z (sc), vehicle: water
  T/C: 160 % of control
endpoint: median survival time, dose: 1.44 mg/kg/injection, schedule: Q01DX Z (sc), vehicle: water
  T/C: 150 % of control
endpoint: median survival time, dose: 1.44 mg/kg/injection, schedule: Q02DX Z (sc), vehicle: water
  T/C: 109 % of control
endpoint: median survival time, dose: 1.44 mg/kg/injection, schedule: Q## X Z (sc), vehicle: water
  T/C: 109 % of control
endpoint: median survival time, dose: 2.16 mg/kg/injection, schedule: Q01DX Z (sc), vehicle: water
  T/C: 150 % of control
endpoint: median survival time, dose: 2.4 mg/kg/injection, schedule: Q## X Z (sc), vehicle: water
  T/C: 104 % of control
endpoint: median survival time, dose: 3.11 mg/kg/injection, schedule: Q01DX Z (sc), vehicle: water
  T/C: 116 % of control
endpoint: median survival time, dose: 3.6 mg/kg/injection, schedule: Q01DX Z (sc), vehicle: water
  T/C: 150 % of control
endpoint: median survival time, dose: 4.0 mg/kg/injection, schedule: Q02DX Z (sc), vehicle: water
  T/C: 118 % of control
endpoint: median survival time, dose: 4.0 mg/kg/injection, schedule: Q## X Z (sc), vehicle: water
  T/C: 113 % of control
endpoint: median survival time, dose: 5.18 mg/kg/injection, schedule: Q01DX Z (sc), vehicle: water
  T/C: 116 % of control
endpoint: median survival time, dose: 6.72 mg/kg/injection, schedule: Q02DX Z (sc), vehicle: water
  T/C: 154 % of control
endpoint: median survival time, dose: 6.72 mg/kg/injection, schedule: Q## X Z (sc), vehicle: water
  T/C: 109 % of control
endpoint: median survival time, dose: 8.64 mg/kg/injection, schedule: Q01DX Z (sc), vehicle: water
  T/C: 100 % of control
endpoint: median survival time, dose: 10.0 mg/kg/injection, schedule: Q01DX Z (sc), vehicle: water
  T/C: 120 % of control
endpoint: median survival time, dose: 10.0 mg/kg/injection, schedule: Q## X Z (sc), vehicle: water
  T/C: 110 % of control
endpoint: median survival time, dose: 11.2 mg/kg/injection, schedule: Q## X Z (sc), vehicle: water
  T/C: 109 % of control
endpoint: median survival time, dose: 14.4 mg/kg/injection, schedule: Q01DX Z (sc), vehicle: water
  T/C: 104 % of control
endpoint: median survival time, dose: 17.0 mg/kg/injection, schedule: Q07DX Z (sc), vehicle: water
  T/C: 120 % of control
endpoint: median survival time, dose: 17.0 mg/kg/injection, schedule: Q## X Z (sc), vehicle: water
  T/C: 110 % of control
endpoint: median survival time, dose: 24.0 mg/kg/injection, schedule: Q01DX Z (sc), vehicle: water
  T/C: 100 % of control
endpoint: median survival time, dose: 28.0 mg/kg/injection, schedule: Q07DX Z (sc), vehicle: water
  T/C: 120 % of control
endpoint: median survival time, dose: 28.0 mg/kg/injection, schedule: Q## X Z (sc), vehicle: water
  T/C: 115 % of control
endpoint: median survival time, dose: 40.0 mg/kg/injection, schedule: Q01DX Z (sc), vehicle: water
  T/C: 100 % of control
endpoint: median survival time, dose: 47.0 mg/kg/injection, schedule: Q01DX001 (sc), vehicle: water
  T/C: 115 % of control
endpoint: median survival time, dose: 47.0 mg/kg/injection, schedule: Q07DX Z (sc), vehicle: water
  T/C: 110 % of control
endpoint: median survival time, dose: 47.0 mg/kg/injection, schedule: Q## X Z (sc), vehicle: water
  T/C: 110 % of control and 120 % of control
endpoint: median survival time, dose: 78.0 mg/kg/injection, schedule: Q01DX001 (sc), vehicle: water
  T/C: 120 % of control
endpoint: median survival time, dose: 78.0 mg/kg/injection, schedule: Q07DX Z (sc), vehicle: water
  T/C: 120 % of control
endpoint: median survival time, dose: 78.0 mg/kg/injection, schedule: Q## X Z (sc), vehicle: water
  T/C: 110 % of control and 120 % of control
endpoint: median survival time, dose: 130.0 mg/kg/injection, schedule: Q01DX001 (sc), vehicle: water
  T/C: 120 % of control
endpoint: median survival time, dose: 130.0 mg/kg/injection, schedule: Q07DX Z (sc), vehicle: water
  T/C: 120 % of control
endpoint: median survival time, dose: 216.0 mg/kg/injection, schedule: Q07DX Z (sc), vehicle: water
  T/C: 120 % of control
endpoint: median survival time, dose: 216.0 mg/kg/injection, schedule: Q## X Z (sc), vehicle: water
  T/C: 160 % of control
endpoint: median survival time, dose: 360.0 mg/kg/injection, schedule: Q07DX Z (sc), vehicle: water
  T/C: 120 % of control

## COc1ccc2cc1Oc1ccc(cc1)C[C@H]1c3cc(c(OC)cc3CCN1C)Oc1c(OC)c(OC)cc3c1[C@H](C2)N(C)CC3
endpoint: median survival time, dose: 37.5 mg/kg/injection, schedule: Q01DX009 (sc), vehicle: methylcellulose (MC)
  T/C: 90 % of control
endpoint: median survival time, dose: 37.5 mg/kg/injection, schedule: Q01DX009 (sc), vehicle: other
  T/C: 90 % of control
endpoint: median survival time, dose: 39.0 mg/kg/injection, schedule: Q01DX009 (sc), vehicle: other
  T/C: 100 % of control and 103 % of control
endpoint: median survival time, dose: 65.0 mg/kg/injection, schedule: Q01DX009 (sc), vehicle: other
  T/C: 100 % of control and 103 % of control
endpoint: median survival time, dose: 75.0 mg/kg/injection, schedule: Q01DX009 (sc), vehicle: methylcellulose (MC)
  T/C: 90 % of control
endpoint: median survival time, dose: 75.0 mg/kg/injection, schedule: Q01DX009 (sc), vehicle: other
  T/C: 92 % of control
endpoint: median survival time, dose: 108.0 mg/kg/injection, schedule: Q01DX009 (sc), vehicle: other
  T/C: 94 % of control and 95 % of control
endpoint: median survival time, dose: 150.0 mg/kg/injection, schedule: Q01DX009 (sc), vehicle: methylcellulose (MC)
  T/C: 95 % of control
endpoint: median survival time, dose: 150.0 mg/kg/injection, schedule: Q01DX009 (sc), vehicle: other
  T/C: 96 % of control
endpoint: median survival time, dose: 180.0 mg/kg/injection, schedule: Q01DX009 (sc), vehicle: other
  T/C: 97 % of control and 100 % of control
endpoint: median survival time, dose: 300.0 mg/kg/injection, schedule: Q01DX009 (sc), vehicle: other
  T/C: 88 % of control and 91 % of control and 82 % of control
endpoint: median survival time, dose: 600.0 mg/kg/injection, schedule: Q01DX009 (sc), vehicle: other
  T/C: 70 % of control

## S=c1nc[nH]c2c1ncn2C1C=CCCC1 (configuration not stated)
endpoint: median survival time, dose: 14.0 mg/kg/injection, schedule: Q01DX Z (sc), vehicle: methylcellulose (MC)
  T/C: 100 % of control
endpoint: median survival time, dose: 23.4 mg/kg/injection, schedule: Q01DX Z (sc), vehicle: methylcellulose (MC)
  T/C: 100 % of control
[1]
  T/C: 100 % of control

## CN(C)Nc1ncnc2nc[nH]c12
endpoint: median survival time, dose: 8.4 mg/kg/injection, schedule: Q01DX Z (sc), vehicle: water
  T/C: 100 % of control
endpoint: median survival time, dose: 14.0 mg/kg/injection, schedule: Q01DX Z (sc), vehicle: water
  T/C: 100 % of control
endpoint: median survival time, dose: 23.0 mg/kg/injection, schedule: Q01DX Z (sc), vehicle: water
  T/C: 111 % of control
endpoint: median survival time, dose: 39.0 mg/kg/injection, schedule: Q01DX Z (sc), vehicle: water
  T/C: 105 % of control
endpoint: median survival time, dose: 65.0 mg/kg/injection, schedule: Q01DX Z (sc), vehicle: water
  T/C: 111 % of control
endpoint: median survival time, dose: 108.0 mg/kg/injection, schedule: Q01DX Z (sc), vehicle: water
  T/C: 100 % of control

## C[C@]12CCC(=O)C=C1CC[C@@H]1[C@@H]2C(=O)C[C@@]2(C)[C@H]1CC[C@]2(O)C(=O)CO
endpoint: median survival time, dose: 39.0 mg/kg/injection, schedule: Q01DX Z (sc), vehicle: methylcellulose (MC)
  T/C: 100 % of control
endpoint: median survival time, dose: 65.0 mg/kg/injection, schedule: Q01DX Z (sc), vehicle: methylcellulose (MC)
  T/C: 104 % of control
[1]
  T/C: 104 % of control
endpoint: median survival time, dose: 180.0 mg/kg/injection, schedule: Q01DX Z (sc), vehicle: methylcellulose (MC)
  T/C: 100 % of control
endpoint: median survival time, dose: 300.0 mg/kg/injection, schedule: Q01DX Z (sc), vehicle: methylcellulose (MC)
  T/C: 100 % of control

## Nc1nc(N)c2nc(CN(CCO)c3ccc(C(=O)NC(CCC(=O)O)C(=O)O)cc3)cnc2n1 (configuration not stated)
endpoint: mean survival time, dose: 2.0 mg/kg/injection, schedule: Q01DX009 (ip), vehicle: sodium bicarbonate
  T/C: 160 % of control
endpoint: mean survival time, dose: 4.0 mg/kg/injection, schedule: Q01DX009 (ip), vehicle: sodium bicarbonate
  T/C: 160 % of control
endpoint: mean survival time, dose: 8.0 mg/kg/injection, schedule: Q01DX009 (ip), vehicle: sodium bicarbonate
  T/C: 191 % of control
endpoint: mean survival time, dose: 8.0 mg/kg/injection, schedule: Q04DX003 (ip), vehicle: sodium bicarbonate
  T/C: 123 % of control
endpoint: mean survival time, dose: 16.0 mg/kg/injection, schedule: Q01DX009 (ip), vehicle: sodium bicarbonate
  T/C: 154 % of control
